Each structure is given as a SMILES string.

The target of assay [1] is T1, human Cystic Fibrosis Transmembrane Conductance Regulator (CFTR) harboring the ΔF508 mutation (Homo sapiens, UniProt P13569, DEL508-508).
T1 construct: expressed in transfected cells; host or cells: H441 carcinoma line (G418-selected)
Nature of the assay: H441 cell ΔF508-CFTR-HRP cell surface assay (Emax and EC50). The class given is cell-based. To be noted: for Emax: NCI-H441, NA = Not active. In short, it runs like this:
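H441 and 41o- bronchial epithelial cells expressing ΔF508-CFTR with an extracellular-loop-4 HRP tag were treated with a 15-point compound series (24.5–0.001 μM) for two nights, H441 at 27° C, 41o- at 37° C with 0.0005 mg/ml doxycycline. Surface HRP luminescence read; % of maximum VX809 signal and EC50 derived.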

Assay [2] concerns the target T2, CFTR-mediated transepithelial chloride transport in primary human bronchial epithelial cells from a ΔF508 homozygous CF donor (Homo sapiens, UniProt P13569, DEL508-508).
T2 construct: Primary human bronchial epithelial cells from a ΔF508 homozygous CF donor; host or cells: primary CF-HBE cells, ΔF508 homozygous donor
Nature of the assay: TECC24 recording of CFTR-mediated transepithelial chloride transport in CF-HBE cells (AUC fold over DMSO). The class given is cell-based. To be noted: test agent 10 μM, 48 hours incubation, AUC of forskolin-stimulated IEQ relative to DMSO. The procedure, abridged: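 Equivalent Cl⁻ current was derived from transepithelial voltage and resistance, and its AUC from forskolin (10 μM) to CFTRinh-172 (20 μM) was divided by the DMSO AUC. Benzamil 10 μM blocked ENaC. Cells were ΔF508-homozygous primary bronchial epithelia pretreated 48 h at 36.5 °C in IL-13 medium.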

T1 sequence (P13569 with tags, fused parts or gaps DEL508-508): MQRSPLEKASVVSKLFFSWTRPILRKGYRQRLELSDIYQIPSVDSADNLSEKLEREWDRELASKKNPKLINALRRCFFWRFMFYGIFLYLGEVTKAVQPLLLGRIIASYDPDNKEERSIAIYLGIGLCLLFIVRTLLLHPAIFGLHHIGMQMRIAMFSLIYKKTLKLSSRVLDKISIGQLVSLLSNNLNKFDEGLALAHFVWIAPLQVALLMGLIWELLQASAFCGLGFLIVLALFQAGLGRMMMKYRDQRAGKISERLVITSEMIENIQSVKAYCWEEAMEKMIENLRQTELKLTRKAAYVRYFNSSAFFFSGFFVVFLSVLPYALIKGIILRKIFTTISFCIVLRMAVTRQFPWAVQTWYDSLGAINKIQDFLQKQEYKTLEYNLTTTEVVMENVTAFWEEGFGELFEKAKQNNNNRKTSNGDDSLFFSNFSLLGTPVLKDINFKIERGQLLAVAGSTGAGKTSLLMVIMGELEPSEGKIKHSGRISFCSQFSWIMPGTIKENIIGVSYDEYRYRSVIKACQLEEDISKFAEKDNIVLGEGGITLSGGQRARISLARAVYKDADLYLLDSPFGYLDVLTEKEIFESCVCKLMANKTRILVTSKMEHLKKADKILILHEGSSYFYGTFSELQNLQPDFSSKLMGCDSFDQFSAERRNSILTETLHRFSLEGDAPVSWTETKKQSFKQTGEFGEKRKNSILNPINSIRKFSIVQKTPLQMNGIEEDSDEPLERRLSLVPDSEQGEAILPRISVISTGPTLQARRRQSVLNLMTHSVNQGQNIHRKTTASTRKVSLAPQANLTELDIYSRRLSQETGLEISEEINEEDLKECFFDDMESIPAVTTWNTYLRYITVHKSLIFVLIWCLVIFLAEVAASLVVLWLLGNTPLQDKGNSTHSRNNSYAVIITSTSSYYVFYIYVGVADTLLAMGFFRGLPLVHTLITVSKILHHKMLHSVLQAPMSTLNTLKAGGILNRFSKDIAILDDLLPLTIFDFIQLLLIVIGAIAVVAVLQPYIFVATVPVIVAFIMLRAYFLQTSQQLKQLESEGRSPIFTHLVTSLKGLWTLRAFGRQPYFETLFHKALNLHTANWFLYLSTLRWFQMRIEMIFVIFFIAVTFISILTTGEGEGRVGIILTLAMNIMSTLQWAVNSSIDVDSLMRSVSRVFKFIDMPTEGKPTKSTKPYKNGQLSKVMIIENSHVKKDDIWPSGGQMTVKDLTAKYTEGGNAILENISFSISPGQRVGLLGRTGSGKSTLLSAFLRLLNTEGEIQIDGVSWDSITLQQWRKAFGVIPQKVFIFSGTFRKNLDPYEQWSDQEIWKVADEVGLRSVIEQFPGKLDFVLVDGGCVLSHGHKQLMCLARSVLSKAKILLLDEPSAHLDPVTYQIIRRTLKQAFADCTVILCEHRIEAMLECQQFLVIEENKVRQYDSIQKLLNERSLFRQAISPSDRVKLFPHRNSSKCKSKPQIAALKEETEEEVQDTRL
T2 sequence (P13569 with tags, fused parts or gaps DEL508-508): as above

Usually EC50 stands for the concentration at which the effect is half-maximal. As usually defined, the Emax is the size of the effect at its maximum, as opposed to the concentration needed. Regarding `CC(C)(C)[C@H](NC(=O)c1ccc2cc(F)ccc2c1OCc1ccc(S(F)(F)(F)(F)F)cc1)C(=O)O` [Example 81, (S)-2-(6-fluoro-1-((4-(pentafluoro-16-sulfanyl)benzyl)oxy)-2-naphthamido)-3,3-dimethylbutanoic Acid], in assay [1], the EC50 is 700 nM and the Emax came out at 91.9%. The “TECC24 AUC fold over DMSO @10 μM” value in assay [2] was “A (“A” refers to AUC @10 uM >6)”.
In assay [1], `CCC(C)(C)[C@H](NC(=O)c1ccc2cc(F)ccc2c1OCc1ccc(SC(F)(F)F)cc1)C(=O)O` [Example 84, (S)-2-(6-fluoro-1-((4-((trifluoromethyl)thio)benzyl)oxy)-2-naphthamido)-3,3-dimethylpentanoic Acid] showed an EC50 of 500 nM and an Emax of 80.5%. The “TECC24 AUC fold over DMSO @10 μM” value in assay [2] is “B (“B” refers to AUC @10 uM between 4-6)”.
For `Cc1cc(COc2c(C(=O)N[C@H](C(=O)O)C(C)(C)C)ccc3ccccc23)no1` [Example 86, (S)-3,3-dimethyl-2-(1-((5-methylisoxazol-3-yl)methoxy)-2-naphthamido)butanoic Acid] the same measures were 5600 nM, 108% and “C (“C” refers to AUC @10 uM <4)”.
In assay [1], `O=C(N[C@@H](CCc1ccccc1)C(=O)O)c1ccc2ccccc2c1OCc1ccc(C(F)(F)F)cc1` [Example 88, (S)-4-phenyl-2-(1-((4-(trifluoromethyl)benzyl)oxy)-2-naphthamido)butanoic Acid] showed a concentration for a half-maximal effect (EC50) of 7300 nM and a maximal effect (Emax) of 64.4%. The “TECC24 AUC fold over DMSO @10 μM” value in assay [2] was “C (“C” refers to AUC @10 uM <4)”.
In turn, `O=C(N[C@@H](Cc1ccccc1)C(=O)O)c1ccc2ccccc2c1OCc1ccccc1C(F)(F)F` [Example 93, (1-((2-(trifluoromethyl)benzyl)oxy)-2-naphthoyl)-L-phenylalanine] returned a maximum response (Emax) in assay [1] of 13.1%. Besides, the “TECC24 AUC fold over DMSO @10 μM” value in assay [2] is reported as “C (“C” refers to AUC @10 uM <4)”.
In assay [1], `O=C(N[C@@H](Cc1ccccc1)C(=O)O)c1ccc2ccccc2c1OCc1cccc(C(F)(F)F)c1` [Example 95, (1-((3-(trifluoromethyl)benzyl)oxy)-2-naphthoyl)-L-phenylalanine] displayed an EC50 of 16000 nM and an Emax of 29.3%. Besides, the “TECC24 AUC fold over DMSO @10 μM” value in assay [2] is “C (“C” refers to AUC @10 uM <4)”.
For `O=C(N[C@@H](Cc1ccccc1)C(=O)O)c1ccc2ccccc2c1OCCc1ccc(C(F)(F)F)cc1` [Example 97, (1-(4-(trifluoromethyl)phenethoxy)-2-naphthoyl)-L-phenylalanine], in assay [1], the Emax came out at 1.1%. In assay [2], the “TECC24 AUC fold over DMSO @10 μM” value was “C (“C” refers to AUC @10 uM <4)”.
In assay [1], `O=C(N[C@@H](Cc1ccccc1)C(=O)O)c1ccc2ccccc2c1OCc1ccc(Cl)c(Cl)c1` [Example 99, (1-((3,4-dichlorobenzyl)oxy)-2-naphthoyl)-L-phenylalanine] returned an EC50 of 5700 nM and an Emax of 83.1%. Further, in assay [2], the “TECC24 AUC fold over DMSO @10 μM” value is “C (“C” refers to AUC @10 uM <4)”.
The corresponding values for `O=C(N[C@@H](Cc1ccc(C(F)(F)F)cc1)C(=O)O)c1ccc2ccccc2c1OCc1ccc(C(F)(F)F)cc1` [Example 104, (S)-2-(1-((4-(trifluoromethyl)benzyl)oxy)-2-naphthamido)-3-(4-(trifluoromethyl)phenyl)propanoic Acid] are 7700 nM, 77.8% and “C (“C” refers to AUC @10 uM <4)”.
For the compound `O=C(N[C@@H](Cc1ccc2c(c1)OCO2)C(=O)O)c1ccc2ccccc2c1OCc1ccc(C(F)(F)F)cc1` [Example 106, (S)-3-(benzo[d][1,3]dioxol-5-yl)-2-(1-((4-(trifluoromethyl)benzyl)oxy)-2-naphthamido)propanoic Acid], in assay [1], the midpoint of the response, the EC50, lay at 10400 nM and the Emax was determined as 82.1%. Further, the “TECC24 AUC fold over DMSO @10 μM” value in assay [2] was “C (“C” refers to AUC @10 uM <4)”.
In assay [1], `CC(C)(C)C[C@H](NC(=O)c1ccc2ccccc2c1OCc1ccc(S(F)(F)(F)(F)F)cc1)C(=O)O` [Example 110, (S)-4,4-dimethyl-2-(1-((4-(pentafluoro-16-sulfanyl)benzyl)oxy)-2-naphthamido)pentanoic Acid] showed an EC50 of 2100 nM and an Emax of 83.1%. Also, the “TECC24 AUC fold over DMSO @10 μM” value in assay [2] is recorded as “B (“B” refers to AUC @10 uM between 4-6)”.
Turning to `O=C(N[C@H](C(=O)O)C1CCCC1)c1ccc2ccccc2c1OCc1ccc(S(F)(F)(F)(F)F)cc1` [Example 111, (S)-2-cyclopentyl-2-(1-((4-(pentafluoro-16-sulfanyl)benzyl)oxy)-2-naphthamido)acetic Acid], in assay [1], a half-maximal effect (EC50) was put at 2300 nM and the Emax was 93.1%. Further, in assay [2], the “TECC24 AUC fold over DMSO @10 μM” value was “B (“B” refers to AUC @10 uM between 4-6)”.
For `O=C(N[C@H](C(=O)O)C1CCCC1)c1ccc2ccccc2c1OCc1ccc(SC(F)(F)F)cc1` [Example 114, (S)-2-cyclopentyl-2-(1-((4-((trifluoromethyl)thio)benzyl)oxy)-2-naphthamido)acetic Acid] the same measures were 2600 nM, 86.1% and “C (“C” refers to AUC @10 uM <4)”.
For `CC(C)(C)C[C@H](NC(=O)c1ccc2ccccc2c1OCc1ccc(SC(F)(F)F)cc1)C(=O)O` [Example 115, (S)-4,4-dimethyl-2-(1-((4-((trifluoromethyl)thio)benzyl)oxy)-2-naphthamido)pentanoic Acid] the same measures were 1100 nM, 84% and “C (“C” refers to AUC @10 uM <4)”.
As to `O=C(N[C@H](C(=O)O)C1CCCC1)c1ccc2cc(F)ccc2c1OCc1ccc(SC(F)(F)F)cc1` [Example 116, (S)-2-cyclopentyl-2-(6-fluoro-1-((4-((trifluoromethyl)thio)benzyl)oxy)-2-naphthamido)acetic Acid], in assay [1], the EC50 stood at 1200 nM and the Emax was determined as 51.4%. The “TECC24 AUC fold over DMSO @10 μM” value in assay [2] is reported as “C (“C” refers to AUC @10 uM <4)”.
The corresponding values for `O=C(N[C@H](C(=O)O)C1CCCC1)c1ccc2cc(F)ccc2c1OCc1ccc(OC(F)(F)F)cc1` [Example 119, (S)-2-cyclopentyl-2-(6-fluoro-1-((4-(trifluoromethoxy)benzyl)oxy)-2-naphthamido)acetic Acid] are 800 nM, 37.1% and “A (“A” refers to AUC @10 uM >6)”.
The corresponding values for `O=C(N[C@H](C(=O)O)C(c1ccccc1)c1ccccc1)c1ccc2ccccc2c1OCc1ccc(C(F)(F)F)cc1` [Example 126, (S)-3,3-diphenyl-2-(1-((4-(trifluoromethyl)benzyl)oxy)-2-naphthamido)propanoic Acid] are 100 nM, 214% and “B (“B” refers to AUC @10 uM between 4-6)”.
In assay [1], `CC(c1ccccc1)C(NC(=O)c1ccc2ccccc2c1OCc1ccc(C(F)(F)F)cc1)C(=O)O` (stereo not shown) [Example 127, 3-phenyl-2-(1-((4-(trifluoromethyl)benzyl)oxy)-2-naphthamido)butanoic Acid] came in with an EC50 of 1100 nM and an Emax of 98.5%. Besides, in assay [2], the “TECC24 AUC fold over DMSO @10 μM” value is on record as “C (“C” refers to AUC @10 uM <4)”.
The corresponding values for `O=C(N[C@H](C(=O)O)C1CCCCC1)c1ccc2ccccc2c1OCc1ccc(C(F)(F)F)cc1` [Example 128, (S)-2-cyclohexyl-2-(1-((4-(trifluoromethyl)benzyl)oxy)-2-naphthamido)acetic Acid] are 500 nM, 158% and “A (“A” refers to AUC @10 uM >6)”.
For the compound `O=C(N[C@H](C(=O)O)[C@H](O)c1ccccc1)c1ccc2ccccc2c1OCc1ccc(C(F)(F)F)cc1` [Example 129, (2S,3R)-3-hydroxy-3-phenyl-2-(1-((4-(trifluoromethyl)benzyl)oxy)-2-naphthamido)propanoic Acid], in assay [1], the response was half-maximal at 12000 nM (EC50) and the Emax came to 29.4%. Moreover, in assay [2], the “TECC24 AUC fold over DMSO @10 μM” value is “C (“C” refers to AUC @10 uM <4)”.
The corresponding values for `O=C(N[C@H](C(=O)O)C(c1ccccc1)c1ccccc1)c1ccc2ccccc2c1OCc1ccc(C(F)(F)F)c(F)c1` [Example 130, (S)-2-(1-((3-fluoro-4-(trifluoromethyl)benzyl)oxy)-2-naphthamido)-3,3-diphenylpropanoic Acid] are 200 nM, 196% and “C (“C” refers to AUC @10 uM <4)”.
For `O=C(N[C@H](C(=O)O)C(c1ccccc1)c1ccccc1)c1ccc2ccccc2c1OCc1ccc(C(F)(F)C(F)(F)F)cc1` [Example 131, (S)-2-(1-((4-(perfluoroethyl)benzyl)oxy)-2-naphthamido)-3,3-diphenylpropanoic Acid] the same measures were 100 nM, 204% and “C (“C” refers to AUC @10 uM <4)”.
For `C[C@@H](OC(C)(C)C)C(NC(=O)c1ccc2ccccc2c1OCc1ccc(C(F)(F)F)cc1)C(=O)O` (stereo partly drawn) [Example 133, (3R)-3-(tert-butoxy)-2-(1-((4-(trifluoromethyl)benzyl)oxy)-2-naphthamido)butanoic Acid] the same measures were 1200 nM, 151% and “A (“A” refers to AUC @10 uM >6)”.
